# What was measured:
# [1] = test system: LLC cells; assay: Lewis lung carcinoma (LLC) model, with and without anti-PD1 or cisplatin; format: in vivo, C57BL/6J male mice; conditions: P<0.05
# Description: (§1) A representative compound of Formula IV, RvE1 magnesium dilysinate, was tested for efficacy in several mouse models of cancer, including the Panc2-H7 model of pancreatic cancer, the Lewis lung carcinoma (LLC) model, the MC38 model of colorectal cancer, and the B16F10 model of melanoma. These models are well established, highly tumorigenic syngeneic models in which murine cancer cell lines are injected subcutaneously (SC) into the dorsum of C57BL/6J mice. If left untreated, these tumors grow rapidly and lead to death or euthanasia, per protocol. As detailed below in Examples 1-9 and the accompanying figures, bis RvE1 Mg-di-lysinate (Compound 1) was unexpectedly effective as an anti-cancer agent in each of these model systems when administered in a less than daily (LTD) dosing regimen. […] Without being bound by any theory, the surprising efficacy of LTD dosing of resolvins in the cancer model systems described here may be the result of durable effects on the tumor microenvironment including changes in immune cell phenotype, vascularization, stromal phenotype, and antigen presentation, as well as durable effects on the T-cell compartment such as T-cell priming and increased tumor-infiltrating lymphocytes.
# To expand our understanding of bis RvE1 Mg-di-lysinate as a cancer therapy that could be used in combination with other cancer therapies including immune checkpoint inhibitors, bis RvE1 Mg-di-lysinate monotherapy and in combination either anti-PD1 or cisplatin was investigated in the LLC model of non-small cell lung cancer, which is a model known to unresponsive to anti-PD1 therapy and moderately responsive to cisplatin. Yu et al., J Exp Clin Cancer Res. 2010; 29(1):46; Lechner et al., J Immunother. 2013; 36(9):477-489. A total of forty (40) C57BL/6J male mice were injected subcutaneously with 1×10e6 living LLC cells. […] In addition, bis RvE1 Mg-di-lysinate was evaluated in combination with anti-PD1 or cisplatin. […]
# [2] = test system: subcutaneous KPC tumors; assay: RNAseq cell enrichment analysis of subcutaneous KPC tumors; format: in vivo, mice; conditions: Q6D treatment, sacrificed on Day 26, compared to placebo
# Description: RNAseq analysis was performed on tumor samples from mice with subcutaneous KPC tumors sacrificed on Day 26 following treatment (Q6D) with bis RvE1 Mg-di-lysinate (Compound 1) compared to placebo. […] Darker color indicates increased gene expression, for various immune cells and other cells, as listed across the top of the heatmap. […] Namely, these unexpected results may be due to durable effects on the tumor microenvironment including changes in immune cell phenotype and the T-cell compartment such as T-cell priming and increased tumor-infiltrating lymphocytes.
# [3] = test system: Panc2-H7 cells; assay: Panc2-H7 model of pancreatic cancer, with and without anti-PD1; format: in vivo, C57BL/6J male mice
# Description: as §1
# Over the last two decades, research on checkpoint inhibitors, including anti-PD(L)1 and anti-CTLA4, has focused on T-cells as a major therapeutic target. Waldman et al., Nat Rev Immunol. 2020; 20(11):651-668. In general, the response to treatment with immune checkpoint inhibitors requires the presence of CD4+ and CD8+ T cells in the tumor microenvironment. Li et al., Biochim Biophys Acta Rev Cancer. 2020; 1874(2):188439. […] Chiurchiu et al., Sci. Transl. Med. 2016; 8:353ra111; Mizraji et al., Front Immunol. 2018; 9:785; Oner et al., Front Immunol. 2021; 12:637983. In addition, resolvins can enhance the de novo generation and function of immunosuppressive T regulatory cells, which are associated with cancer progression and resistance to immune checkpoint inhibitors. Alvarez et al., Front Immunol. 2021; 12:664756; Togashi et al., Nat Rev Clin Oncol 2019; 16, 356-371. […]
# [4] = test system: Panc2-H7 cells; assay: Panc2-H7 model, daily (QD) versus weekly (Q7D) dosing; format: in vivo, C57BL/6J male mice; conditions: SC
# Description: as §1
# Based on the previous findings in the MC38 colorectal cancer model with less than daily (LTD) dosing, a study in the Panc2-H7 model was conducted to assess the efficacy of LTD dosing of bis RvE1 Mg-di-lysinate in a different tumor model. A total of forty (40) C57BL/6J male mice were injected subcutaneously with 1×10e6 living Panc2-H7 cells. Once tumors reached 160-320 mm^3 in size, the mice were randomized (n=8 per group) to treatment with vehicle or SC injection with bis RvE1 Mg-di-lysinate at 30 ug/kg and 300 ug/kg (QD, Q7D).
# [5] = test system: MC-38 cells; assay: MC38 model of colorectal cancer, subcutaneous tumors; format: in vivo, C57BL/6J male mice; conditions: 300 ug/kg, SC, single agent, P<0.05 vs placebo
# Description: as §1, with “lymphocytes. […]” for “lymphocytes.”
structure (smiles),measurement,setting,value
CC[C@@H](O)/C=C/C=C\C[C@@H](O)/C=C/C=C/C=C\[C@@H](O)CCCC(=O)O [bis RvE1 Mg-di-lysinate],tumor volume (Day 11 vs Day 0),[1]; bis RvE1 Mg-di-lysinate 30 ug/kg SC QD in combination with anti-PD1 8 mg/kg IP Q3D,reduced tumor volume compared to placebo and cisplatin and anti-PD1 alone
same,tumor volume (Day 11 vs Day 0),[1]; bis RvE1 Mg-di-lysinate 30 ug/kg SC QD in combination with cisplatin 5 mg/kg i.p Q5D,reduced tumor volume compared to placebo and cisplatin and anti-PD1 alone
same,immune cell marker gene expression in tumors (RNAseq heatmap),[2],"increase in markers of monocytes and DC cell subset (cDCs, pDCs, and iDCs) and markers of NK, CD8+ T cells, Th1 cells, and memory T cells (CD8+ and CD4+)"
same,tumor growth,"[3]; double combination: bis RvE1 Mg-di-lysinate 30 ug/kg SC plus anti-PD1 8 mg/kg IP Q3D, p<0.001 vs placebo and monotherapy groups",significantly inhibited tumor growth relative to control
same,"anti-cancer effect (tumor volume, Day 15 vs Day 0)","[3]; monotherapy, 30 ug/kg, subcutaneous injection",did not have a significant anti-cancer effect
same,tumor growth,"[3]; triple combination of bis RvE1 Mg-di-lysinate, anti-PD1 and gemcitabine",significantly inhibited tumor growth relative to control
same,tumor volume (Day 20 vs Day 0),"[4]; 30 ug/kg, Q7D",inhibition relative to placebo control
same,tumor volume (Day 20 vs Day 0),"[4]; 30 ug/kg, QD",inhibition relative to placebo control
same,tumor volume (Day 20 vs Day 0),"[4]; 300 ug/kg, Q7D, P<0.05 vs placebo control",greatest inhibition
same,tumor volume (Day 20 vs Day 0),"[4]; 300 ug/kg, QD",inhibition relative to placebo control
same,tumor volume (Day 15 vs Day 0),[5]; Q3D,effective as a single agent
same,tumor volume (Day 15 vs Day 0),[5]; QD,effective as a single agent
